Results reported in patent US3996359A, “Novel stereoisomeric component A of stereoisomeric mixtures of 2'-unsymmetrical 16,17-methylenedioxy steroid 21-acylates, compositions thereof, and method of treating therewith” (AB Bofors, priority 1972, dated 1976).

Test system: rats subjected to adrenalectomy (granuloma around implanted cotton wads)
Test: granulom test (cotton-pellet test) on rats subjected to adrenalectomy: granuloma growth, thymus weight, body weight increase
Format: in vivo, rat (Sprague-Dawley)
Details: for Dose required to obtain 50% inhibition of Granuloma growth: Table 3, adrenalectomized young male Sprague-Dawley rats, topical in implanted cotton wads, day 8; for Dose required to obtain 25% inhibition of Body weight Increase / Dose required to obtain 50% inhibition of Thymus weight: 11520 min
Text: In the following this active stereoisomeric component will always be designated B. As regards the steroids referred to in connection with the present invention the stereoisomeric mixture as well as the individual stereoisomeric components A and B have been investigated with regard to antiinflammatory activity in granulom test on rats subjected to adrenalectomy. The experimental procedure used corresponds largely to that described by G. Engelhardt: Arzneimittel-Forschung, 13, p. 588, 1963. According to this procedure the test substances are applied topically in the implanted cottom wads. It is thereby possible to study the local antiinflammatory effect in granulomas and also systemic effects in the form of retrogression of thymus and inhibition of bodyweight growth.
Young male rats of the Sprague-Dawley strain weighing about 110-130 g were subjected to adrenalectomy under ether narcosis. Two sterilized cottom wads of each about 6 mg were implanted simultaneously subcutaneously on the lateral side of the spinal. After awakening the animals were stored 5 per cage and were supplied with normal food and 1% sodium chloride solution as drinking water. On the eighth test day the animals were sacrificed by ether narcosis. The granuloma formed around the cotton wads were carefully recovered and thymus and body weights were measured. The two granuloma from each animal were dried over night at 80° C and weighed. After subtraction of the initial weight of the cotton wads the weight increase was used as a measure of the granulom growth.
The test substances were used dissolved in ethyl acetate. Under aseptic conditions 0.05 ml of said solutions were injected into each of the cotton wads, whereafter the solvent was allowed to evaporate in the desiccator. Normally 3 concentrations of each test substance with the standard doses 3.3, 30 and 270 γ/animal were investigated. Each test group normally comprised 10 rats. The cotton wads of the control group were injected with only ethyl acetate, but were in other respects treated in the same way. When considering the effects of the test substances the average values of granulom growth, thymus weight and body weight increase day 0-8 were measured in each group in absolute figures and in % of the corresponding figure of the control group. Dose-response curves were drafted and used for estimating the doses giving 50 % reduction of granulom growth and of thymus weight and 25 % decrease of body weight increase.
The following Table 4 discloses the results of the cotton-pellet test hereinbefore described, giving in addition figures for the therapeutic ratios, that is, the ratios of the ED50 for thymus weight inhibition divided by the ED50 for granuloma formation inhibition, and the ED25 for body weight increase inhibition over the ED50 for granuloma formation inhibition. As will be recognized, the higher the number for the therapeutic ratio, the more favorable the therapeutic ratio. […] As will be noted for the table, the therapeutic ratio for thymus over granuloma for the Component A esters is 4.2, 7.1, 4.5, 2.6, 2.2, 1.7, 2.5 and 1.7 times as good as it is for the corresponding Component B ester isomer, whereas the therapeutic ratio for the Component A ester isomer as far as body weight is granuloma 2.7, 3.3, 9.8, 6.4, 2.3, 2.8, 3.3 and 2.8 times as favorable as for the corresponding Component B ester isomer.

[1] = Table 4, ED25 body weight increase inhibition over ED50 granuloma formation inhibition
[2] = Table 4, ED50 thymus weight inhibition divided by ED50 granuloma formation inhibition

## CCCC1O[C@@H]2C[C@H]3[C@@H]4CCC5=CC(=O)C=C[C@]5(C)[C@H]4[C@@H](O)C[C@]3(C)[C@]2(C(=O)COC(C)=O)O1 (single isomer, unassigned) [27 A]
  Dose required to obtain 50% inhibition of Granuloma growth: < 3 γ/animal
rat, in vivo
  ED25 body weight increase inhibition: 100 µg/animal
  ED50 thymus weight inhibition: 100 µg/animal
  Therapeutic ratio body weight/granuloma: > 33.3
  Therapeutic ratio thymus/granuloma: > 33.3
  Dose required to obtain 25% inhibition of Body weight Increase: 100 γ/animal
  Dose required to obtain 50% inhibition of Thymus weight: 100 γ/animal

## CCCC1O[C@@H]2C[C@H]3[C@@H]4CCC5=CC(=O)C=C[C@]5(C)[C@H]4[C@@H](O)C[C@]3(C)[C@]2(C(=O)COC(C)=O)O1 (single isomer, unassigned) [27 B]
  Dose required to obtain 50% inhibition of Granuloma growth: < 3 γ/animal
rat, in vivo
  ED25 body weight increase inhibition: 35 µg/animal
  ED50 thymus weight inhibition: 60 µg/animal
  Therapeutic ratio body weight/granuloma: > 11.7
  Therapeutic ratio thymus/granuloma: > 20.0
  Dose required to obtain 25% inhibition of Body weight Increase: 35 γ/animal
  Dose required to obtain 50% inhibition of Thymus weight: 60 γ/animal

## CCCC1O[C@@H]2C[C@H]3[C@@H]4CCC5=CC(=O)C=C[C@]5(C)[C@H]4[C@@H](O)C[C@]3(C)[C@]2(C(=O)COC(=O)c2cc3ccccc3o2)O1 (single isomer, unassigned) [28 A]
rat, in vivo
  ED25 body weight increase inhibition: 100 µg/animal
  ED50 thymus weight inhibition: 100 µg/animal
  Therapeutic ratio body weight/granuloma: > 33.3
  Therapeutic ratio thymus/granuloma: > 33.3

## CCCC1O[C@@H]2C[C@H]3[C@@H]4CCC5=CC(=O)C=C[C@]5(C)[C@H]4[C@@H](O)C[C@]3(C)[C@]2(C(=O)COC(=O)c2cc3ccccc3o2)O1 (single isomer, unassigned) [28 B]
rat, in vivo
  ED25 body weight increase inhibition: 35 µg/animal
  ED50 thymus weight inhibition: 60 µg/animal
  Therapeutic ratio body weight/granuloma: > 11.7
  Therapeutic ratio thymus/granuloma: > 20.0

## CC1O[C@@H]2C[C@H]3[C@@H]4CCC5=CC(=O)C=C[C@]5(C)[C@@]4(F)[C@@H](O)C[C@]3(C)[C@]2(C(=O)CO)O1 (some centres unmarked) [1 A+B]
  Dose required to obtain 50% inhibition of Granuloma growth: 120 γ/animal
rat, in vivo
  Dose required to obtain 25% inhibition of Body weight Increase: > 270 γ/animal
  Dose required to obtain 50% inhibition of Thymus weight: 270 γ/animal

## CCCC1O[C@@H]2C[C@H]3[C@@H]4CCC5=CC(=O)C=C[C@]5(C)[C@H]4[C@@H](O)C[C@]3(C)[C@]2(C(=O)CO)O1 (some centres unmarked) [12 A+B]
  Dose required to obtain 50% inhibition of Granuloma growth: 100 γ/animal
rat, in vivo
  Dose required to obtain 25% inhibition of Body weight Increase: 80 γ/animal
  Dose required to obtain 50% inhibition of Thymus weight: 80 γ/animal

## CCCCCC1O[C@@H]2C[C@H]3[C@@H]4CCC5=CC(=O)C=C[C@]5(C)[C@H]4[C@@H](O)C[C@]3(C)[C@]2(C(=O)CO)O1 (some centres unmarked) [13 A+B]
  Dose required to obtain 50% inhibition of Granuloma growth: 10 γ/animal
rat, in vivo
  Dose required to obtain 25% inhibition of Body weight Increase: 90 γ/animal
  Dose required to obtain 50% inhibition of Thymus weight: 175 γ/animal

## CC1O[C@@H]2C[C@H]3[C@@H]4CCC5=CC(=O)C=C[C@]5(C)[C@@]4(F)[C@@H](O)C[C@]3(C)[C@]2(C(=O)COC(=O)c2cc3ccccc3o2)O1 (some centres unmarked) [16 A]
  Dose required to obtain 50% inhibition of Granuloma growth: 5 γ/animal
[1]
  Therapeutic ratio body weight/granuloma: > 9.0
[2]
  Therapeutic ratio thymus/granuloma: 14.0
rat, in vivo
  ED25 body weight increase inhibition: > 45 µg/animal
  ED50 thymus weight inhibition: 70 µg/animal
  Dose required to obtain 25% inhibition of Body weight Increase: > 45 γ/animal
  Dose required to obtain 50% inhibition of Thymus weight: 70 γ/animal

## CC1O[C@@H]2C[C@H]3[C@@H]4CCC5=CC(=O)C=C[C@]5(C)[C@@]4(F)[C@@H](O)C[C@]3(C)[C@]2(C(=O)COC(=O)c2cc3ccccc3o2)O1 (some centres unmarked) [16 B]
  Dose required to obtain 50% inhibition of Granuloma growth: 3 γ/animal
[1]
  Therapeutic ratio body weight/granuloma: 3.3
[2]
  Therapeutic ratio thymus/granuloma: 3.3
rat, in vivo
  ED25 body weight increase inhibition: 10 µg/animal
  ED50 thymus weight inhibition: 10 µg/animal
  Dose required to obtain 25% inhibition of Body weight Increase: 10 γ/animal
  Dose required to obtain 50% inhibition of Thymus weight: 10 γ/animal

## CC1O[C@@H]2C[C@H]3[C@@H]4C[C@H](F)C5=CC(=O)C=C[C@]5(C)[C@@]4(F)[C@@H](O)C[C@]3(C)[C@]2(C(=O)COC(=O)c2cc3ccccc3o2)O1 (some centres unmarked) [23 A]
[1]
  Therapeutic ratio body weight/granuloma: > 3.3
[2]
  Therapeutic ratio thymus/granuloma: > 3.3
rat, in vivo
  ED25 body weight increase inhibition: 10 µg/animal
  ED50 thymus weight inhibition: 10 µg/animal

## CC1O[C@@H]2C[C@H]3[C@@H]4C[C@H](F)C5=CC(=O)C=C[C@]5(C)[C@@]4(F)[C@@H](O)C[C@]3(C)[C@]2(C(=O)COC(=O)c2cc3ccccc3o2)O1 (some centres unmarked) [23 B]
[1]
  Therapeutic ratio body weight/granuloma: > 1.0
[2]
  Therapeutic ratio thymus/granuloma: > 1.3
rat, in vivo
  ED25 body weight increase inhibition: 3 µg/animal
  ED50 thymus weight inhibition: 4 µg/animal

## CC1(C)O[C@@H]2C[C@H]3[C@@H]4C[C@H](F)C5=CC(=O)C=C[C@]5(C)[C@@]4(F)[C@@H](O)C[C@]3(C)[C@]2(C(=O)CO)O1 [Fluocinolone acetonide, reference compound]
  Dose required to obtain 50% inhibition of Granuloma growth: ~50 γ/animal
rat, in vivo
  decrease of body weight growth at the dose giving 50% inhibition of granulom growth: heavy decrease
  decrease of thymus weight at the dose giving 50% inhibition of granulom growth: heavy decrease
  Dose required to obtain 25% inhibition of Body weight Increase: 20 γ/animal
  Dose required to obtain 50% inhibition of Thymus weight: 14 γ/animal

## CC1(C)O[C@@H]2C[C@H]3[C@@H]4CCC5=CC(=O)C=C[C@]5(C)[C@H]4[C@@H](O)C[C@]3(C)[C@]2(C(=O)CO)O1 [Prednacinolone acetonide, reference compound]
  Dose required to obtain 50% inhibition of Granuloma growth: 270 γ/animal
rat, in vivo
  Dose required to obtain 25% inhibition of Body weight Increase: > 270 γ/animal
  Dose required to obtain 50% inhibition of Thymus weight: 105 γ/animal

## CC1(C)O[C@@H]2C[C@H]3[C@@H]4CCC5=CC(=O)C=C[C@]5(C)[C@@]4(F)[C@@H](O)C[C@]3(C)[C@]2(C(=O)CO)O1 [Triamcinolone acetonide, reference compound]
rat, in vivo
  decrease of body weight growth at the dose giving 50% inhibition of granulom growth: heavy decrease
  decrease of thymus weight at the dose giving 50% inhibition of granulom growth: heavy decrease
  Dose required to obtain 25% inhibition of Body weight Increase: 100 γ/animal
  Dose required to obtain 50% inhibition of Thymus weight: 70 γ/animal
